Test results: EP0142057A2, “Thiazoloquinazoline derivatives, their preparation and pharmaceutical compositions containing same” (F. HOFFMANN-LA ROCHE AG, priority 1983, dated 1985)

Columns and labels:
[1] = test system: antigen-induced bronchoconstriction; test: In vivo screening procedure for SRS-A synthesis inhibitors in guinea pigs; conditions: 10 mg/kg i.v., 1 minute prior to antigen challenge
From the text: Paralyzed, artificially ventilated, actively sensitized guinea pigs are pretreated with indomethacin (to divert the flow of endogenous arachidonic acid through the lipoxygenase pathway), pyrilamine maleate (to block any bronchoconstriction due to released histamine) and propranol (to enhance the sensitivity of the guinea pig bronchoconstriction to SRS-A) prior to challenging the animal with antigen. Under these conditions the resulting antigen-induced bronchoconstriction has been characterized as being attributable to the synthesis and release of SRS-A in the guinea pig lung. Test compounds are initially studies for their inhibitory properties in this test system by the intravenous route (at 10 mg/kg) given 1 minute prior to antigen challenge.

TXA2 synthase = molecular target: T1, TXA2 synthase (Homo sapiens, UniProt P24557); test: Thromboxane synthase inhibition, in vitro; assay type: biochemical; conditions: at 10^-7M; microsomal fractions from human platelets; read-out: TXA2Synthase Inhibition (% at 10^-7M)
T1 construct: using microsomal fractions from human platelets as enzyme source; from tissue; host or cells: human platelets (microsomal fraction)
T1 sequence (P24557 1-533): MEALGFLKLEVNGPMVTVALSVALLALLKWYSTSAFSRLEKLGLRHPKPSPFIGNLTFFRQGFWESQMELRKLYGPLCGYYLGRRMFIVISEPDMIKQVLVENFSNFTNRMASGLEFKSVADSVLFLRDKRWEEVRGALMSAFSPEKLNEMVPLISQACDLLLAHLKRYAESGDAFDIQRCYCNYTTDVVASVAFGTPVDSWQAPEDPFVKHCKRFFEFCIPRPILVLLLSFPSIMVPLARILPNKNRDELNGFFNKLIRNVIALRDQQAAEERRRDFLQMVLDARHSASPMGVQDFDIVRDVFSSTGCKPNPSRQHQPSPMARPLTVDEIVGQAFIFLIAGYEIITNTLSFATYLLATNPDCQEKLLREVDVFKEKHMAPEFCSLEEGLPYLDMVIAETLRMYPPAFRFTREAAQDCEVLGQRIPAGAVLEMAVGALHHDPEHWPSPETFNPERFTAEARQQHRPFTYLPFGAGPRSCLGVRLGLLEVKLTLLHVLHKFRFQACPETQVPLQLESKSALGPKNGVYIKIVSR
Description: TXA2 synthase activity is measured by following the conversion of ^14C-prostaglandin endoperoxide (PGH2) to ^14C-thromboxane A2 (TXA2) using microsomal fractions from human platelets as enzyme source. In the aqueous incubation medium, the TXA2 decomposes rapidly into TXB2. The amount of TXA2 synthase is adjusted so that under the conditions of the assay approximately 80-90% of the substrate, PGH2, is converted to product in control tubes. To prepare ^14C-PGH2, ^14C-AA (50-60 mCi/mmole: Rose Chem.) is incubated with sheep seminal vesicular gland microsomes for 1.5 minutes at 37°C and then the ^14C-PGH2 is extracted with diethylether, purified on columns of Sephadex LH-20 or silicic acid, and stored in acetone at -70°C. Incubations are done as follows. Sufficient ^14C-PGH2 to yield a final substrate concentration of 10 µM (30,000 cpm) is added to the incubation tubes and then the acetone is removed under nitrogen. The tubes are placed in an ice bath and then 215 1 of ice cold phosphate buffered saline, 10 1 of ethanol (control) or of test drug in ethanol, and 25 1 of the microsomal suspension are added with mixing in that order as rapidly as possible. The tubes are incubated at 22°C for 2 minutes, the reaction is stopped and then the radioactive products and the uncoverted PGH2 are extracted and analyzed by thin layer chromatography. […] The amount of ^14C-PGH2 converted to products was used as a measure of TXA2 synthase activity. Inhibitors were tested initially at a final concentration of 100 µM. Results obtained with representative compounds of the present invention in this assay are summarized hereafter in Table I.

Row | inhibition at 0.1 µM (TXA2 synthase) [%] | SMILES | inhibition of the bronchoconstriction [1] [%]
1 | – | CC(C)c1ccc2nc3sc(C(=O)NCCCCc4ccccn4)cn3c(=O)c2c1 [Example 11] | 44
2 | 67 | CC(C)c1ccc2nc3sc(C(=O)NCCCCn4ccnc4)cn3c(=O)c2c1 [the 1st table, row 8] | –
